Laboratory results as given in patent US20260176270A1 (Exelixis, Inc., priority 2022, published 2026).
Where two headings read alike, the source gives them in different places.

Legend:
[1] = target: T1, PKMYT1 (Homo sapiens, UniProt Q99640); assay: ADP-Glo PKMYT1 ATP-depletion assay; conditions: 50 nM PKMYT1, 13.3 nM CDK1, read-out: Biochemical IC50
T1 construct: PKMYT1 (93 kD, full length, N-terminal GST tag from Signal Chem); GST (N); purchased Signal Chem
T1 sequence (Q99640 1-499): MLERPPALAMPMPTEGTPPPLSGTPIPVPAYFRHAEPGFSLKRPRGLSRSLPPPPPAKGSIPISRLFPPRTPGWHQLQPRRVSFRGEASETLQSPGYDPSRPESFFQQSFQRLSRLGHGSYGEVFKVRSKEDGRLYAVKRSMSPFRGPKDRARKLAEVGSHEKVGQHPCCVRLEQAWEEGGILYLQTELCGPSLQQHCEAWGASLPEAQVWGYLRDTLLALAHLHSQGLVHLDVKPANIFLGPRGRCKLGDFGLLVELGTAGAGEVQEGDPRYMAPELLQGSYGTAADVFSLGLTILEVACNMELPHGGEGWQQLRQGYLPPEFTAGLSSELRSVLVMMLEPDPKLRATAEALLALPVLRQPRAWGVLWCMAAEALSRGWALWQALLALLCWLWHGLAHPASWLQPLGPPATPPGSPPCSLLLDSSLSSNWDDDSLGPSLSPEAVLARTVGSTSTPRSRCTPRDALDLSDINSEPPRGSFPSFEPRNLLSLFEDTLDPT
How it was run: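 Full-length N-terminal GST-tagged PKMYT1 (50 nM) with GST-CDK1 (13.3 nM) as substrate and 88 µM ATP, in Hepes buffer with MgCl2, MnCl2, DTT and BSA; DMSO <1%. Incubated 120 min at RT. ADP formed was quantified by ADP-Glo luminescence and used to derive biochemical IC50.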

[2] = system: phosphorylation of CDK1 at Thr14 in HCC1806 cells; assay: Cell lysate AlphaLISA assay measuring inhibition of phosphorylation of CDK1 Thr14; format: cell-based; conditions: read-out: Cellular IC50
How it was run: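 HCC1806 cells seeded overnight, then treated 4 h at 37 °C, 5% CO2 with compounds in DMSO; washed and lysed, lysates frozen overnight at −80 °C. CDK1 Thr14 phosphorylation read by AlphaLISA SureFire Ultra; data normalized to DMSO (0% inhibition) and 3 μM reference compound to give IC50.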

| Compound | IC50 [1] | IC50 ([2]; Homo sapiens, HCC1806, 4 h) | IC50 ([2]; 4 hours) |
| --- | --- | --- | --- |
| Cc1c(O)cccc1-c1c(N)c(C(N)=O)cc2ncc(C(F)(F)F)nc12 [Compound 115, 7-Amino-8-(3-hydroxy-2-methylphenyl)-2-(trifluoromethyl)quinoxaline-6-carboxamide] | 50 to 500 nM |  | 0.5 to 1 µM |
| Cc1ccc2nc(C(N)=O)c(N)c(-c3cccc(O)c3C)c2c1 [Compound 55, 3-Amino-4-(3-hydroxy-2-methylphenyl)-6-methylquinoline-2-carboxamide] | 50 to 500 nM | 1 to 5 µM |  |
| Cc1c(O)cccc1-c1c(N)c(C(N)=O)cc2nc(C(F)(F)F)cnc12 [Compound 96, 7-Amino-8-(3-hydroxy-2-methylphenyl)-3-(trifluoromethyl)quinoxaline-6-carboxamide] | 50 to 500 nM |  | 1 to 5 µM |
| Cc1nc2cc(C(N)=O)c(N)c(-c3cccc(O)c3C)c2nc1C (single isomer, unassigned) [Compound 92, (P)-7-Amino-8-(3-hydroxy-2-methylphenyl)-2,3-dimethylquinoxaline-6-carboxamide] | < 50 nM |  | 0.05 to 0.5 µM |
| Cc1c(O)cccc1-c1c(N)c(C(N)=O)nc2ccccc12 [Compound 18, 3-Amino-4-(3-hydroxy-2-methylphenyl)quinoline-2-carboxamide] | 50 to 500 nM | 1 to 5 µM |  |
| Cc1c(O)cccc1-c1c(N)c(C(N)=O)nc2cccc(F)c12 (single isomer, unassigned) [Compound 57, (P)-3-Amino-5-fluoro-4-(3-hydroxy-2-methylphenyl)quinoline-2-carboxamide] | < 50 nM |  | 0.05 to 0.5 µM |
| Cc1n[nH]c2cccc(-c3c(N)c(C(N)=O)cc4nccnc34)c12 (single isomer, unassigned) [Compound 119, (P)-7-amino-8-(3-methyl-1H-indazol-4-yl)quinoxaline-6-carboxamide] | ≥ 5000 nM |  | ≥ 5 µM |
| Cc1c(O)cccc1-c1c(N)c(C(N)=O)cc2ncc(C(F)(F)F)nc12 (single isomer, unassigned) [Compound 125, (M)-7-Amino-8-(3-hydroxy-2-methylphenyl)-2-(trifluoromethyl)-quinoxaline-6-carboxamide] | 1000 to 5000 nM |  | ≥ 5 µM |
| Cc1n[nH]c2cccc(-c3c(N)c(C(N)=O)cc4nccnc34)c12 [Compound 109, 7-Amino-8-(3-methyl-1H-indazol-4-yl)quinoxaline-6-carboxamide] | 50 to 500 nM | ≥ 5 µM |  |
| COc1cncc(-c2c(N)c(C(N)=O)cc3nccnc23)c1C [Compound 107, 7-amino-8-(5-methoxy-4-methylpyridin-3-yl)quinoxaline-6-carboxamide] | 50 to 500 nM | ≥ 5 µM |  |
| NC(=O)c1cc2nccnc2c(-c2cc(O)cnc2Cl)c1N [Compound 122, 7-Amino-8-(2-chloro-5-hydroxy-3-pyridyl)quinoxaline-6-carboxamide] | 1000 to 5000 nM | ≥ 5 µM |  |
| Cc1c(O)cccc1-c1c(N)c(C(N)=O)nc2cc(C(F)(F)F)ccc12 [Compound 59, 3-Amino-4-(3-hydroxy-2-methylphenyl)-7-(trifluoromethyl) quinoline-2-carboxamide] | ≥ 5000 nM |  | 1 to 5 µM |
| Cc1ccc(O)c(C)c1-c1c(N)c(C(N)=O)nc2ccc(F)cc12 (atropisomer, axis not shown; (P)) [Compound 24, (P)-3-amino-6-fluoro-4-(3-hydroxy-2,6-dimethylphenyl) quinoline-2-carboxamide] | 1000 to 5000 nM |  | ≥ 5 µM |
| NC(=O)c1cc2nccnc2c(-c2cc(O)ccc2Cl)c1N [Compound 121, 7-Amino-8-(2-chloro-5-hydroxyphenyl)quinoxaline-6-carboxamide] | 50 to 500 nM | 1 to 5 µM |  |
| Cc1ccc(O)c(C)c1-c1c(N)c(C(N)=O)nc2c(C)cccc12 (single isomer, unassigned) [Compound 32] | ≥ 5000 nM | ≥ 5 µM |  |
| Cc1ccc(O)c(C)c1-c1c(N)c(C(N)=O)cc2nccnc12 (single isomer, unassigned) [Compound 83, (P)-7-Amino-8-(3-hydroxy-2,6-dimethylphenyl)quinoxaline-6-carboxamide] | < 50 nM |  | 0.05 to 0.5 µM |
| Cc1nc2cc(C(N)=O)c(N)c(-c3cccc(O)c3C)c2nc1C (single isomer, unassigned) [Compound 93, (M)-7-Amino-8-(3-hydroxy-2-methylphenyl)-2,3-dimethylquinoxaline-6-carboxamide] | ≥ 5000 nM |  | ≥ 5 µM |

Second part, the compound after the results:

| IC50 [1] | IC50 ([2]; Homo sapiens, HCC1806, 4 h) | IC50 ([2]; 4 hours) | Compound |
| --- | --- | --- | --- |
| 50 to 500 nM | 1 to 5 µM |  | NC(=O)c1nc2cccnc2c(-c2cccc3[nH]ncc23)c1N [Compound 206] |
| < 50 nM |  | 0.05 to 0.5 µM | Cc1c(O)cccc1-c1c(N)c(C(N)=O)nc2cc(C(F)(F)F)cnc12 [Compound 161] |
| ≥ 5000 nM | ≥ 5 µM |  | CC1=C(c2c(N)c(C(N)=O)nc3cccnc23)CCC[C@@H]1O [Compound 310] |
| ≥ 5000 nM | 1 to 5 µM |  | Cc1c(-c2c(N)c(C(N)=O)nc3cccnc23)cnn1C [Compound 320] |
| 50 to 500 nM |  | 0.5 to 1 µM | NC(=O)c1nc2cccnc2c(-c2c(F)ccc3[nH]ncc23)c1N (atropisomer, axis not shown) [Compound 244] |
| < 50 nM |  | 0.05 to 0.5 µM | COc1ccc2nc(C(N)=O)c(N)c(-c3cccc(O)c3C)c2n1 [Compound 157] |
| ≥ 5000 nM |  | ≥ 5 µM | CCn1ccc2cc(C(N)=O)c(N)c(-c3cccc(O)c3C)c2c1=O (atropisomer, axis not shown) [Compound 328] |
| ≥ 5000 nM |  | ≥ 5 µM | Cc1c(O)cccc1-c1c(N)c(C(N)=O)cc2nc(C(F)(F)F)c(O)nc12 (atropisomer, axis not shown) [Compound 136] |
| ≥ 5000 nM | ≥ 5 µM |  | NC(=O)c1nc2cccnc2c(-c2cccc3[nH]cnc23)c1N [Compound 181] |
| < 50 nM |  | 0.05 to 0.5 µM | Cc1c(O)cccc1-c1c(N)c(C(N)=O)cc2ccn(C)c(=O)c12 (atropisomer, axis not shown) [Compound 336] |
| ≥ 5000 nM |  | ≥ 5 µM | NC(=O)c1cc2nccnc2c(-c2cc(O)cnc2Cl)c1N (atropisomer, axis not shown) [Compound 164] |
| 1000 to 5000 nM |  | ≥ 5 µM | Cc1c(O)cccc1-c1c(N)c(C(N)=O)cc2c1ncc(=O)n2C (atropisomer, axis not shown) [Compound 283] |
| ≥ 5000 nM | ≥ 5 µM |  | Cc1c(O)cccc1-c1c(N)c(C(N)=O)nc2nccc(O)c12 [Compound 297] |
| < 50 nM |  | 0.05 to 0.5 µM | CCn1ccc2cc(C(N)=O)c(N)c(-c3cccc(O)c3C)c2c1=O (atropisomer, axis not shown) [Compound 329] |
| ≥ 5000 nM | ≥ 5 µM |  | Cc1c(O)cccc1-c1c(N)c(C(N)=O)nc2nccc(Cl)c12 [Compound 261] |
| 500 to 1000 nM |  | ≥ 5 µM | Cc1cc(O)c(C)c(-c2c(N)c(C(N)=O)nc3cccnc23)c1 (atropisomer, axis not shown) [Compound 286] |
| ≥ 5000 nM | ≥ 5 µM |  | Cc1cc(O)cc(C)c1-c1cc(C(N)=O)nc2ccccc12 [Compound 130] |
| 50 to 500 nM | ≥ 5 µM |  | NC(=O)c1cc2nccnc2c(-c2ccc(F)c(O)c2)c1N [Compound 200] |
